Publication PMC12655446, “Colon-Specific Delivery of Probenecid Enhances Therapeutic Activity of the Uricosuric Agent Against Rat Colitis” (Pharmaceutics, 2025)
“Also recorded” adds a separate entry of the source.

Tests used:
[1] = test system: dextran sulfate sodium-induced colitis; set-up: method as in PMID 40602551; details: mice, oral 100 mg/kg; cited from earlier work
[2] = Distribution coefficient (log D6.8), isotonic phosphate buffer (pH 6.8)/n-octanol; type: physicochemical
Protocol: Distribution coefficients (log D6.8) of PBN, PBN-GA, and PBN-AA were measured using an isotonic phosphate buffer (pH 6.8)/n-octanol system, as described previously.

[3] = test system: Px-1; set-up: method as in PMID 18596212; details: cited from earlier work
[4] = Chemical stability in HCl-NaCl buffer (pH 1.2) and isotonic phosphate buffer (pH 6.8); type: physicochemical
Protocol: The chemical stabilities of PBN-GA and PBN-AA were tested in HCl-NaCl buffer (pH 1.2) and isotonic phosphate buffer (pH 6.8). Changes in the concentrations of PBN-GA and PBN-AA were monitored by HPLC.

[5] = Incubation in small intestinal contents of rats; type: in vitro ADME, rat; details: 10 h
Protocol: Male Sprague-Dawley rats (250–260 g) were euthanized with CO2 prior to making a midline abdominal incision. The small intestinal contents were collected and suspended in isotonic phosphate buffer (pH 6.8) to prepare a 20% (w/v) suspension. PBN-GA (2 mM) was dissolved in 3 mL of isotonic phosphate buffer (pH 6.8), were mixed with 3 mL of the small intestinal suspension and incubated at 37 °C. A solution of PBN-AA was created with the same method. At designated time points, 0.5 mL of the reaction mixture was collected and centrifuged at 10,000× g at 4 °C for 10 min, and 0.1 mL of the supernatant was mixed with 0.9 mL of methanol. After vortexing and centrifugation under the same conditions, the final supernatant was filtered through a 0.45 μm membrane, and 20 μL of the filtrate was analyzed for PBN concentration by HPLC.

[6] = test system: Caco-2 cell monolayer; test: Cell permeability assay across Caco-2 cell monolayer; type: in vitro ADME; details: 500 μM apical, up to 24 h, apical to basolateral
Protocol: The cell permeabilities of PBN, PBN-GA, and PBN-AA were evaluated using a Caco-2 cell monolayer model. Caco-2 cells were seeded at a density of 4 × 10^5 cells per insert in Transwell 6-well plates with a pore size of 0.4 μm (SPL Life Sciences, Pocheon, Gyeonggi-do, Republic of Korea). The cells were cultured in Dulbecco’s modified eagle medium (DMEM) supplemented with 10% Fetal bovine serum (FBS) and 1% penicillin/streptomycin until the transepithelial electrical resistance (TEER) measured using an EMD Millipore system (Billerica, MA, USA) reached 2000 Ω·cm^2, indicating an intact monolayer.
For the transport study, the apical (donor) compartment was filled with 2 mL of DMEM without phenol red containing the test compounds (500 μM), and 3 mL of DMEM without phenol red was placed in the basolateral (acceptor) compartment. Samples were collected from the basolateral side at designated time intervals up to 24 h to determine the concentration of the permeated compounds using HPLC. Each experiment was performed in triplicate, and monolayer integrity was confirmed by maintaining TEER values above 2000 Ω·cm^2 before and after the assay.

[7] = test system: DNBS-induced rat colitis; test: Anticolitis effects in DNBS-induced rat colitis; type: in vivo
Protocol: Experimental colitis was induced in rats as previously described. Briefly, male Sprague–Dawley rats underwent to a 24 h fasting period with free access to water. Anesthesia was induced using 3% isoflurane and maintained at 2.5% in 1 L/min oxygen using a Small Animal O2 Single Flow Anesthesia System (LMS, Pyeongtaek, Republic of Korea). Once the animals no longer reacted to external tactile stimulation, a rubber cannula (2 mm outer diameter) was carefully inserted rectally, positioning the tip approximately 8 cm from the anus to target the splenic flexure. A solution of DNBS (48.0 mg) in 0.4 mL of 50% aqueous ethanol was then instilled into the colon via cannula to induce colitis.
Three days after the induction of colonic inflammation, the respective drugs were orally administered to the rats once daily for 6 consecutive days. The experimental scheme and treatment group assignments are shown in Supplementary Material S1. Colonic damage scores (CDS) were determined based on previously established scoring criteria. The scoring system is shown in Supplementary Material S2. Three independent observers blinded to the treatment groups conducted the CDS assessments. Myeloperoxidase (MPO) activity in the distal colon (4 cm) was determined as previously. One unit of MPO activity was defined as 1.0 μmol min^−1 of peroxide degradation at 25 °C.
Western blot analysis was performed on lysates derived from distal colon tissues following a previously established protocol. The detailed procedure is shown in Supplementary Material S3. Western blot images were quantified using Image Lab software (version 5.2 build 14; Bio-Rad, Hercules, CA, USA). Results are presented as the mean of the quantified values for each Western blot in the figures (n = 5).
The levels of inflammatory cytokine-induced neutrophil chemoattractant-3 (CINC-3) in the inflamed distal colon were determined using a CINC-3 enzyme-linked immunosorbent assay (ELISA) kit (R&D Systems, Minneapolis, MN, USA) as previously described.

[8] = PBN concentration in the cecum after oral gavage; type: in vivo; details: rat
Protocol: For cecal distribution studies, rats were orally administered PBN (30.0 mg/kg) or PBN-GA (43.6 mg/kg, equivalent to 30.0 mg/kg of PBN) in 1.0 mL PBS. At 2, 4, and 8 h post-dosing, the cecal contents were harvested and suspended in isotonic phosphate buffer (pH 6.8) to prepare 10% (w/v) homogenates. Quantitative analysis of PBN in the cecal suspensions was performed using HPLC, following the procedure described in Section 2.7.

[9] = oral once daily for 6 days, PBN-GA 21.8 and 43.6 mg/kg

## N[C@@H](CCC(=O)O)C(=O)O [GA, glutamic acid]
[1]
  effect on dextran sulfate sodium-induced colitis: attenuates

## CCCN(CCC)S(=O)(=O)c1ccc(C(=O)O)cc1 [PBN, Probenecid]
[2]
  logD: 0.3
[3]
  concentration required for significant inhibition of Px-1: 1 mM

## CCCN(CCC)S(=O)(=O)c1ccc(C(=O)N[C@@H](CC(=O)O)C(=O)O)cc1 [PBN-AA, aspartic acid-conjugated PBN]
[4]; buffer pH 1.2, 10 h
  change in concentration of the conjugate (stability): no significant change
[4]; buffer pH 6.8, 10 h
  change in concentration of the conjugate (stability): no significant change
[2]
  logD: -1.04
[5]
  change in concentration of the conjugate (stability): no significant change
[6]
  transport via the Caco-2 cell monolayer compared with PBN: lower transport

## CCCN(CCC)S(=O)(=O)c1ccc(C(=O)N[C@@H](CCC(=O)O)C(=O)O)cc1 [PBN-GA, glutamic acid-conjugated PBN]
[4]; buffer pH 1.2, 10 h
  change in concentration of the conjugate (stability): no significant change
[4]; buffer pH 6.8, 10 h
  change in concentration of the conjugate (stability): no significant change
[7]; [9]
  CINC-3 level in inflamed colon (ELISA): dose-dependently diminished
  COX-2 level in inflamed colon (Western blot): dose-dependently diminished
  iNOS level in inflamed colon (Western blot): dose-dependently diminished
  mucosal recovery (H&E staining of inflamed colon): more effective than PBN and SSZ
  myeloperoxidase (MPO) activity in inflamed distal colon: dose-dependently diminished
[7]; oral once daily for 6 days, PBN-GA 21.8 and 43.6 mg/kg, PBN 30.0 mg/kg, SSZ 50.0 mg/kg
  colonic tissue damage (colonic damage score, CDS): greater with PBN-GA than with PBN; also recorded: more effective than SSZ
[7]; regardless of the dose of PBN-GA
  suppression of the inflammatory response compared with PBN and SSZ: more effective in suppressing the inflammatory response than PBN and SSZ
[8]; oral 43.6 mg/kg (equivalent to 30.0 mg/kg PBN), 2, 4 and 8 h
  amount of PBN detected in the cecum compared with oral PBN: much greater amount of PBN
[8]; oral, all time points
  amount of PBN in the large intestine relative to oral PBN: ten-fold
[2]
  logD: -1.22
[5]
  change in concentration of the conjugate (stability): no significant change
[6]
  transport via the Caco-2 cell monolayer compared with PBN: lower transport
